Measurements as given in patent publication US9982073B2, “Homopolymers of terpenoid alcohols and their uses” (priority 2015, dated 2018).

Tests used:
Format in all cases: cell-based
Aspergillus niger = assay: Disk inhibition testing, A. niger; conditions: 48 hours at 25° C.
Experimental: (§1) Fungal broths of Aspergillus fumigatus and Aspergillus niger were prepared in a tissue culture hood by transferring the frozen stock culture (−70° C. freezer) of the given fungi to a plate of Sabourad Dextrose Agar. The A. fumigatus culture plates were incubated for 48 hours at 37° C. and the A. niger culture plates were incubated for 72 hours at 25° C. The fungal broth was prepared by using a cork borer to add 2-3 circular pieces of agar containing active fungal growth to distilled water (4.0 mL). A tissue homogenizer was then used to grind the agar and create a suspension of fungal spores.
(§2) Each sample (˜15 mg) was dissolved in a solvent (3.000 mL of tetrahydrofuran or 3.000 mL distilled water) depending on the sample's solubility. The sample (20 μL of sample solution or 100 μg of sample was then transferred to a sterile filter paper disk. The disk was then allowed to dry so that all solvent was evaporated and 100 μg of sample remained on the disk. […]
(§3) The C. albicans and A. fumigfatus plates were incubated for 24 hours at 37° C., the A. niger plates were incubated for 48 hours at 25° C. and the S. cerevisiae plates were incubated for 24 hours at 30° C. […] Where a zone of growth inhibition was observed, the diameter of the ring was measured to the closest 0.1 mm using a caliper. […]

Saccharomyces cerevisiae = assay: Disk inhibition testing, S. cerevisiae; conditions: 24 hours at 30° C.; for zone of inhibition at 100 µg/disc: Saccharomyces cerevisiae, 100 μg sample per disk, NI = no inhibition, read-out: Diameter of zone of growth inhibition, S. Cerevisiae
Experimental: (§4) Plates of Sabourad Dextrose Agar (Difco) and tubes of Malt Extract Broth (20 mL/tube) were prepared according to manufacturer direction using aseptic techniques. Fungal broths of Saccharomyces cerevisiae and Candida albicans were prepared in a tissue culture hood by transferring frozen stock culture (−70° C. freezer, prepared from ATCC bought strains) of the given fungi to the broth tube. The S. cerevisiae culture tubes were incubated for 48 hours at 30° C. and the C. albicans culture tubes were incubated for 48 hours at 37° C.
(§5) Each sample (˜15 mg) was dissolved in a solvent (3.000 mL of tetrahydrofuran or 3.000 mL distilled water) depending on the sample's solubility. The sample (20 μL of sample solution or 100 μg of sample was then transferred to a sterile filter paper disk. The disk was then allowed to dry so that all solvent was evaporated and 100 μg of sample remained on the disk.
Plates of Sabourad Dextrose Agar (Difco) were prepared according to manufacture directions using aseptic techniques. The fungal agar plates were prepared using the culture broth of S. cerevisiae, C. albicans, A. fumigatus or A. niger as prepared above after the incubation period. In a tissue culture hood, the fungal culture broth solution (200 μL) was transferred to each Sabourad Dextrose Agar plate and spread evenly over the agar and allowed to dry for a minimum of 20 minutes. Four sample disks or control antifungal disks were then places onto each agar plate, one in the center of each quadrant of the plate. The sample disks were prepared as described above and the antifungal disks were pre-made disks of 20 μg of amphotericin B.
The C. albicans and A. fumigfatus plates were incubated for 24 hours at 37° C., the A. niger plates were incubated for 48 hours at 25° C. and the S. cerevisiae plates were incubated for 24 hours at 30° C. The plates were then observed for zones of fungal growth inhibition. Where a zone of growth inhibition was observed, the diameter of the ring was measured to the closest 0.1 mm using a caliper. […]

Candida albicans = assay: Disk inhibition testing, C. albicans; conditions: 24 hours at 37° C.
Experimental: as §4, §5
Plates of Sabourad Dextrose Agar (Difco) were prepared according to manufacture directions using aseptic techniques. […]
as §3

Aspergillus fumigatus = assay: Disk inhibition testing, A. fumigatus; conditions: pre-made antifungal disk 20 μg; 24 hours at 37° C.
Experimental: as §1, §2, §3

Escherichia coli = assay: Disk inhibition testing, E. coli; conditions: 24 hours at 37° C.; for zone of inhibition at 100 µg/disc: Escherichia coli, 100 μg sample per disk, NI = no inhibition, read-out: Diameter of zone of growth inhibition, E. Coli
Experimental: (§6) Tubes of Tryptic Soy Broth (10 mL/tube,) were prepared according to manufacturer directions (Difco) using aseptic techniques. Bacterial broth of Escherichia coli, Staphylococcus aureus, Pseudomonas aeruginosa, Proteus hauseri, and Bacillus cereus were prepared in a tissue culture hood by transferring frozen stock culture (−70° C. freezer, prepared from ATCC bacterial quality control strains) of the given bacteria to the broth tube. The E. coli, S. aureus, P. aeruginosa, and P. hauseri culture tubes were then incubated for 24 hours at 37° C. and the B. cereus culture tubes were incubated at 30° C. for 24 hours.
as §5
(§7) Plates of Mueller Hinton II Agar (Difco) were prepared according to manufacturer directions using aseptic techniques. The bacterial agar plates were prepared using the bacterial culture broth of E. coli, S. aureus, P. aeruginosa, P. hauseri, or B. cereus as prepared above after the incubation period. In a tissue culture hood, the given bacterial culture broth solution (300 μL) was transferred to each Mueller Hinton Agar II plate and spread evenly over the agar and allowed to dry for a minimum of 20 minutes. Four sample disks (as prepared above) or control antibiotic disks (pre-made disks) were then places onto each agar plate, one in the center of each quadrant of the plate.
(§8) The E. coli, S. aureus, P. aeruginosa, and P. hauseri, plates were incubated for 24 hours at 37° C. and the B. cereus plates were incubated for 24 hours at 30° C. The plates were then observed for zones of bacterial growth inhibition. Where a zone of growth inhibition was observed, the diameter of the ring was measured to the closest 0.1 mm using a caliper. […] The absence of a uniform bacterial lawn was ruled a failed test and in this case the test would need to be repeated in order to achieve meaningful results.

Pseudomonas aeruginosa = assay: Disk inhibition testing, P. aeruginosa; conditions: 24 hours at 37° C.
Experimental: as §6, §5, §7, §8

Proteus hauseri = assay: Disk inhibition testing, P. hauseri; conditions: 24 hours at 37° C.; for zone of inhibition at 100 µg/disc: Proteus hauseri, 100 μg sample per disk, NI = no inhibition, read-out: Diameter of zone of growth inhibition, P. Hauseri
Experimental: as §6, §5, §7, §8

Staphylococcus aureus = assay: Disk inhibition testing, S. aureus; conditions: 24 hours at 37° C.; for zone of inhibition at 100 µg/disc: Staphylococcus aureus, 100 μg sample per disk, NI = no inhibition, read-out: Diameter of zone of growth inhibition, S. Aureus
Experimental: as §6, §5, §7, §8

Bacillus cereus = assay: Disk inhibition testing, B. cereus; conditions: pre-made control disk 30 μg; 24 hours at 30° C.
Experimental: as §6, §5
Plates of Mueller Hinton II Agar (Difco) were prepared according to manufacturer directions using aseptic techniques. […]
The E. coli, S. aureus, P. aeruginosa, and P. hauseri, plates were incubated for 24 hours at 37° C. and the B. cereus plates were incubated for 24 hours at 30° C. […] Where a zone of growth inhibition was observed, the diameter of the ring was measured to the closest 0.1 mm using a caliper. […]

## C[C@@H]1[C@H](O)[C@@H](C)/C=C/C=C/C=C/C=C/C=C/C=C/C=C/[C@H](O[C@@H]2O[C@H](C)[C@@H](O)[C@H](N)[C@@H]2O)C[C@@H]2O[C@](O)(C[C@@H](O)C[C@@H](O)[C@H](O)CC[C@@H](O)C[C@@H](O)CC(=O)O[C@H]1C)C[C@H](O)[C@H]2C(=O)O [Amphotericin B, amphotericin B]
Aspergillus niger; pre-made antifungal disk 20 μg
  Diameter of zone of growth inhibition, A. Niger: 9.7 mm
Saccharomyces cerevisiae; pre-made antifungal disk 20 μg
  Diameter of zone of growth inhibition, S. Cerevisiae: 10.2 mm
Candida albicans; pre-made antifungal disk 20 μg
  Diameter of zone of growth inhibition, C. Albicans: 12.9 mm
Aspergillus fumigatus
  Diameter of zone of growth inhibition, A. Fumigratus: 11.4 mm

## CC1(C)S[C@@H]2[C@H](NC(=O)[C@H](N)c3ccccc3)C(=O)N2[C@H]1C(=O)O [Ampicillin]
Escherichia coli; pre-made control disk 10 μg
  Diameter of zone of growth inhibition, E. Coli: 19.7 mm
Pseudomonas aeruginosa; pre-made control disk 10 μg, NI = no inhibition
  Diameter of zone of growth inhibition, P. Aeriginosa: 9.1 mm
Proteus hauseri; pre-made control disk 10 μg
  Diameter of zone of growth inhibition, P. Hauseri: 7.2 mm

## O=C(N[C@H](CO)[C@H](O)c1ccc([N+](=O)[O-])cc1)C(Cl)Cl [Chloramphenicol]
Escherichia coli; pre-made control disk 30 μg
  Diameter of zone of growth inhibition, E. Coli: 24.4 mm
Staphylococcus aureus; pre-made control disk 30 μg
  Diameter of zone of growth inhibition, S. Aureus: 17.8 mm
Pseudomonas aeruginosa; pre-made control disk 30 μg
  Diameter of zone of growth inhibition, P. Aeriginosa: 18.7 mm
Proteus hauseri; pre-made control disk 30 μg
  Diameter of zone of growth inhibition, P. Hauseri: 16.7 mm
Bacillus cereus
  Diameter of zone of growth inhibition, B. Cereus: 15.7 mm

## CC(C)=CCCC(C)CCO (centres unmarked) [Citronellol]
Escherichia coli
  zone of inhibition at 100 µg/disc: 8.7 mm
Staphylococcus aureus
  zone of inhibition at 100 µg/disc: 5.4 mm
Proteus hauseri
  zone of inhibition at 100 µg/disc: 8.8 mm
Saccharomyces cerevisiae
  zone of inhibition at 100 µg/disc: 6.7 mm

## CC(C)=CCC/C(C)=C/CO [Geraniol]
Escherichia coli
  zone of inhibition at 100 µg/disc: 8.5 mm
Staphylococcus aureus
  zone of inhibition at 100 µg/disc: 4.7 mm
Proteus hauseri
  zone of inhibition at 100 µg/disc: 9.3 mm
Aspergillus niger; Aspergillus niger, 100 μg sample per disk, NI = no inhibition, read-out: Diameter of zone of growth inhibition, A. Niger
  zone of inhibition at 100 µg/disc: 8.1 mm
Candida albicans; Candida albicans, 100 μg sample per disk, NI = no inhibition, read-out: Diameter of zone of growth inhibition, C. Albicans
  zone of inhibition at 100 µg/disc: 8.3 mm

## C=CC(C)(O)CCC=C(C)C (centres unmarked) [Linalool]
Escherichia coli
  zone of inhibition at 100 µg/disc: 7.2 mm
Pseudomonas aeruginosa; Pseudomonas aeruginosa, 100 μg sample per disk, NI = no inhibition, read-out: Diameter of zone of growth inhibition, P. Aeriginosa
  zone of inhibition at 100 µg/disc: 7.1 mm
Saccharomyces cerevisiae
  zone of inhibition at 100 µg/disc: 7.3 mm

## CN(C)[C@@H]1C(O)=C(C(N)=O)C(=O)[C@@]2(O)C(O)=C3C(=O)c4c(O)cccc4[C@@](C)(O)[C@H]3C[C@@H]12 [Tetracycline]
Escherichia coli; pre-made control disk 30 μg
  Diameter of zone of growth inhibition, E. Coli: 21.4 mm
Staphylococcus aureus; pre-made control disk 30 μg
  Diameter of zone of growth inhibition, S. Aureus: 19.0 mm
Pseudomonas aeruginosa; pre-made control disk 30 μg
  Diameter of zone of growth inhibition, P. Aeriginosa: 12.3 mm
Proteus hauseri; pre-made control disk 30 μg
  Diameter of zone of growth inhibition, P. Hauseri: 15.9 mm
Bacillus cereus
  Diameter of zone of growth inhibition, B. Cereus: 23.4 mm

## Penicillin
Escherichia coli; pre-made control disk 10 μg
  Diameter of zone of growth inhibition, E. Coli: 9.4 mm
Staphylococcus aureus; pre-made control disk 10 μg
  Diameter of zone of growth inhibition, S. Aureus: 16.9 mm
Proteus hauseri; pre-made control disk 10 μg
  Diameter of zone of growth inhibition, P. Hauseri: 8.1 mm
